Numbers after ± are expanded uncertainties.
Test: xn = mol fraction of the nth substance listed
Conditions: Liquid, Vibrating tube method, x1 = 1

CCO [ethanol] + CCCCCCC
mass density [kg/m3]
Conditions | 293.15 K | 303.15 K | 313.15 K | 323.15 K | 333.15 K
100 kPa | 789.4 ± 1 | 781.1 ± 1 | 772.3 ± 1 | 763.1 ± 1 | 754.2 ± 1
5000 kPa | 793.5 ± 1 | 785.7 ± 1 | 776.9 ± 1 | 768 ± 1 | 759.4 ± 1
10000 kPa | 797.5 ± 1 | 789.8 ± 1 | 781.5 ± 1 | 772.9 ± 1 | 764.6 ± 1
15000 kPa | 801.4 ± 1 | 794 ± 1 | 785.8 ± 1 | 777.3 ± 1 | 769.4 ± 1
20000 kPa | 805.2 ± 1 | 797.8 ± 1 | 789.8 ± 1 | 781.4 ± 1 | 773.8 ± 1
25000 kPa | 808.7 ± 1 | 801.6 ± 1 | 793.7 ± 1 | 785.7 ± 1.1 | 777.8 ± 1.1
30000 kPa | 812.1 ± 1.1 | 805 ± 1.1 | 797.4 ± 1.1 | 789.4 ± 1.1 | 781.7 ± 1.1
35000 kPa | 815.3 ± 1.1 | 808.5 ± 1.1 | 801 ± 1.1 | 793.1 ± 1.1 | 785.6 ± 1.1
40000 kPa | 818.6 ± 1.1 | 811.8 ± 1.1 | 804.4 ± 1.1 | 796.7 ± 1.1 | 789.3 ± 1.1
45000 kPa | 821.6 ± 1.1 | 814.9 ± 1.1 | 807.8 ± 1.1 | 800.1 ± 1.1 | 792.8 ± 1.1
50000 kPa | 824.6 ± 1.1 | 817.9 ± 1.1 | 810.8 ± 1.1 | 803.5 ± 1.1 | 796.3 ± 1.1
55000 kPa | 827.5 ± 1.1 | 821.1 ± 1.1 | 813.7 ± 1.1 | 806.6 ± 1.1 | 799.7 ± 1.1
60000 kPa | 830.2 ± 1.1 | 824 ± 1.1 | 816.6 ± 1.1 | 809.7 ± 1.1 | 802.9 ± 1.1
65000 kPa | 832.9 ± 1.1 | 826.7 ± 1.1 | 819.5 ± 1.1 | 812.6 ± 1.1 | 806 ± 1.1

From the NIST ThermoML archive (doi:10.1021/je050261u)
